Numbered stars: 1 amine (or outer) side, 2 acyl side, 3 side chain; on linkers, the order of the positions; unused ones are H or OH. Bridge positions count the residues as written; N and C are the ends. Square brackets hold non-standard residues; d marks the D form. Side chains are listed from the residue outwards. Peptide text beside a SMILES is read from it. * marks the point of attachment. X2 = O=C(O)CN1CCN(CC(=O)O)CCN(CC(=O)N[C@@H](CCCCN*)C(=O)O)CCN(CC(=O)O)CC1; Ala(piperidin-4-yl) = O=C([C@H](CC1CCN([*:3])CC1)N[*:1])[*:2]; DOTA = O=C(O)CN1CCN(CC(=O)O)CCN(CC(=O)*)CCN(CC(=O)O)CC1; 1Nal = N[C@@H](Cc1cccc2ccccc12)C(=O)O; 2Nal = N[C@@H](Cc1ccc2ccccc2c1)C(=O)O; Phe(2-Me) = Cc1ccccc1C[C@H](N)C(=O)O; mXylylene = c1cc(C[*:1])cc(C[*:2])c1; Trx = NC[C@H]1CC[C@H](C(=O)O)CC1; tBuAla = CC(C)(C)C[C@H](N)C(=O)O; Chg = N[C@H](C(=O)O)C1CCCCC1; αMeP = C[C@@]1(C(=O)O)CCCN1; Dap = NC[C@H](N)C(=O)O; CH2 = C([*:1])[*:2]; Ahx = NCCCCCC(=O)O Where only a bound is given, the exact number is not on record here.

This test concerns the target T1, human DLL3 (Homo sapiens, UniProt Q9NYJ7).
T1 construct: biotin (biotinylated)
T1 sequence (Q9NYJ7 27-618): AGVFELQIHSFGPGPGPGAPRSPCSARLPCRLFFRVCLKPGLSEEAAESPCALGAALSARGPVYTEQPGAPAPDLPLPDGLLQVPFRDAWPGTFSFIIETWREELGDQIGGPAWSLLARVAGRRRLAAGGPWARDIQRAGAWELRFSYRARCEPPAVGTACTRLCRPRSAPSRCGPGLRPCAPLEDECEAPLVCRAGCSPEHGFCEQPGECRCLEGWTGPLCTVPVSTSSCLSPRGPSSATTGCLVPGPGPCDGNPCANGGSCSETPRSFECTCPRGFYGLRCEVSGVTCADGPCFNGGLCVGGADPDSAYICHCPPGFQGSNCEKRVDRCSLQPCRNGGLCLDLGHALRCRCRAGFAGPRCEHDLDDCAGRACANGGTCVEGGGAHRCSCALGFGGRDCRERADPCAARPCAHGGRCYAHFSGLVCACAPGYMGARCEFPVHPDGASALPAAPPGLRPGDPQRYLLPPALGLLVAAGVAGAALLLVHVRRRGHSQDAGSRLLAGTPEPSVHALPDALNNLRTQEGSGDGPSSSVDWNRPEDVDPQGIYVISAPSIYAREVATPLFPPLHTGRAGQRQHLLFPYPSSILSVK
Kind of test: Affinity determination by Surface Plasmon Resonance (SPR), Biacore, 1:1 binding model. The note with it: biotinylated human DLL3 on streptavidin chip, 25° C.; NB = nonbinding. The protocol:
Example 3. Binding Affinity of Targeting Moieties Polypeptides to DLL3 Affinity Determination by Surface Plasmon Resonance (SPR)
SPR studies were performed on the compounds disclosed herein using the following protocol. […] Biotinylated target ligand human DLL3 was immobilized on a streptavidin sensor chip. A reference surface was set up for nonspecific binding and refractive index changes. For analysis of the kinetics of interactions, varying concentrations of samples were injected at a flow rate of 100 μL/min using running buffer containing 20 mM phosphate buffer with 2.7 mM KCl, 137 mM NaCl, 0.05% Surfactant P20 and 2% DMSO. Sensorgram curves were fitted with 1:1 binding model, and affinity and kinetic parameters were obtained using Biacore Insight evaluation 4.0. software.
Regarding `CC(=O)N[C@H](C)C(=O)N[C@@H](CO)C(=O)N[C@@](C)(CC(=O)O)C(=O)N[C@H]1C/C=C/C[C@@H](C(=O)N2CCC[C@@]2(C)C(=O)N[C@@H](Cc2ccccc2)C(=O)N[C@@H](CC(=O)O)C(N)=O)NC(=O)[C@H](CC(N)=O)NC(=O)[C@H](Cc2ccc3ccccc3c2)NC(=O)[C@H](Cc2ccc(CNC(=O)CN3CCN(CC(=O)O)CCN(CC(=O)O)CCN(CC(=O)O)CC3)cc2)NC(=O)[C@H](CC(C)(C)C)NC(=O)[C@H](Cc2cccc3ccccc23)NC1=O` (single isomer, unassigned) [Cpd #193, Ac-(D-Ala)-S-(aMe-Asp)-AllyG(4)-(1Nal)-(t-Bu-Ala)-[PAF(DOTA)]-(2Nal)-N-AllyG(4)-(aMe-P)-F-D-CONH2], the Kd amounted to 0.113 nM.

As for `CSCC[C@H](NC(C)=O)C(=O)N[C@@H](CO)C(=O)N[C@@H](CC(=O)O)C(=O)N[C@H]1CSSC[C@@H](C(=O)N2CCC[C@H]2C(=O)N[C@@H](Cc2ccccc2)C(=O)N[C@@H](CC(=O)O)C(N)=O)NC(=O)[C@H](CC(N)=O)NC(=O)[C@H](Cc2c[nH]c3ccccc23)NC(=O)[C@H](CCC(N)=O)NC(=O)[C@H](CC(C)C)NC(=O)[C@H](Cc2c[nH]c3ccccc23)NC1=O` [Cpd #1, Ac-M-S-D-C(3)-W-L-Q-W-N-C(3)-P-F-D-CONH2] (Ac-MSDCWLQWNCPFD-NH2; disulfide 4-10), the Kd was 11 nM.

Turning to `CSCC[C@H](NC(=O)CCCCCNC(=O)CN1CCN(CC(=O)O)CCN(CC(=O)O)CCN(CC(=O)O)CC1)C(=O)N[C@@H](CO)C(=O)N[C@@H](CC(=O)O)C(=O)N[C@H]1CSSC[C@@H](C(=O)N2CCC[C@H]2C(=O)N[C@@H](Cc2ccccc2)C(=O)N[C@@H](CC(=O)O)C(N)=O)NC(=O)[C@H](CC(N)=O)NC(=O)[C@H](Cc2c[nH]c3ccccc23)NC(=O)[C@H](CCC(N)=O)NC(=O)[C@H](CC(C)C)NC(=O)[C@H](Cc2c[nH]c3ccccc23)NC1=O` [Cpd #7, DOTA-Ahx-M-S-D-C(3)-W-L-Q-W-N-C(3)-P-F-D-CONH2] ({DOTA-Ahx}-MSDCWLQWNCPFD-NH2; disulfide 4-10), binding was characterised by a dissociation constant (Kd) of 14 nM.

Compound `CC(=O)N[C@@H](CO)C(=O)N[C@@H](CC(=O)O)C(=O)N[C@H]1CSCSC[C@@H](C(=O)N2CCC[C@H]2C(=O)N[C@@H](Cc2ccccc2)C(=O)N[C@@H](CC(=O)O)C(=O)N[C@H](CCCCNC(=O)CN2CCN(CC(=O)O)CCN(CC(=O)O)CCN(CC(=O)O)CC2)C(N)=O)NC(=O)[C@H](CC(N)=O)NC(=O)[C@H](Cc2c[nH]c3ccccc23)NC(=O)[C@H](CCC(N)=O)NC(=O)[C@H](CC(C)C)NC(=O)[C@H](Cc2c[nH]c3ccccc23)NC1=O` [Cpd #66, Ac-S-D-C(1)-W-L-Q-W-N-C(1)-P-F-D-D-Lys(DOTA)-CONH2] (Ac-SDCWLQWNCPFD[dK](DOTA)-NH2; linker 3-9 via CH2) had a Kd above 300 nM.

Take `CC(=O)N[C@H](C(=O)N[C@@H](CO)C(=O)N[C@@H](CC(=O)O)C(=O)N[C@H]1CSCc2cccc(c2)CSC[C@@H](C(=O)N2CCC[C@@]2(C)C(=O)N[C@@H](Cc2ccccc2)C(=O)N[C@@H](CC(=O)O)C(=O)N[C@H](CCCCNC(=O)CN2CCN(CC(=O)O)CCN(CC(=O)O)CCN(CC(=O)O)CC2)C(N)=O)NC(=O)[C@H](CC(N)=O)NC(=O)[C@H](Cc2c[nH]c3ccccc23)NC(=O)[C@H](CCC(N)=O)NC(=O)[C@H](CC(C)C)NC(=O)[C@H](Cc2cccc3ccccc23)NC1=O)C1CCCCC1` [Cpd #144, Ac-(Chg)-S-D-C(mDBX)-(1Nal)-L-Q-W-N-C(2)-(aMe-P)-F-D-D-Lys(DOTA)-CONH2] (Ac-[Chg]SDC[1Nal]LQWNC[αMeP]FD[dK](DOTA)-NH2; linker 4-10 via mXylylene): the Kd is above 30 nM.

For the compound `CNC(=O)[C@@H](CCCCNC(=O)CN1CCN(CC(=O)O)CCN(CC(=O)O)CCN(CC(=O)O)CC1)NC(=O)[C@H](CC(=O)O)NC(=O)[C@H](Cc1ccccc1)NC(=O)[C@]1(C)CCCN1C(=O)[C@@H]1CSSC[C@H](NC(=O)[C@H](CC(=O)O)NC(=O)[C@H](CO)NC(=O)[C@@H](C)NC(C)=O)C(=O)N[C@@H](Cc2cccc3ccccc23)C(=O)N[C@@H](CC(C)(C)C)C(=O)N[C@@H](CCC(N)=O)C(=O)N[C@@H](Cc2ccc3ccccc3c2)C(=O)N[C@@H](CC(N)=O)C(=O)N1` [Cpd #147, Ac-(D-Ala)-S-D-C(3)-(1Nal)-(t-Bu-Ala)-Q-(2Nal)-N-C(3)-(aMe-P)-F -D-[D-Lys(DOTA)]-CONHMe] (Ac-[dA]SDC[1Nal][tBuAla]Q[2Nal]NC[αMeP]FD[dK](DOTA)-NHMe; disulfide 4-10), binding was characterised by a dissociation constant (Kd) of 0.13 nM.

In turn, `CC(=O)N[C@H](C)C(=O)N[C@@H](CO)C(=O)N[C@@H](CC(=O)O)C(=O)N[C@H]1CSSC[C@@H](C(=O)N2CCC[C@@]2(C)C(=O)N[C@@H](Cc2ccccc2C)C(=O)N[C@@H](CC(=O)O)C(=O)N[C@H](CCCCNC(=O)CN2CCN(CC(=O)O)CCN(CC(=O)O)CCN(CC(=O)O)CC2)C(=O)O)NC(=O)[C@H](CC(N)=O)NC(=O)[C@H](Cc2ccc3ccccc3c2)NC(=O)[C@H](CCC(N)=O)NC(=O)[C@H](CC(C)(C)C)NC(=O)[C@H](Cc2cccc3ccccc23)NC1=O` [Cpd #150, Ac-(D-Ala)-S-D-C(3)-(1Nal)-(t-Bu-Ala)-Q-(2Nal)-N-C(3)-(aMe-P)-(2Me-F)-D-[D-Lys(DOTA)]-COOH] (Ac-[dA]SDC[1Nal][tBuAla]Q[2Nal]NC[αMeP][Phe(2-Me)]D[dK](DOTA)-OH; disulfide 4-10) gave a Kd of 0.13 nM.

As for `CC(=O)N[C@H](C)C(=O)N[C@H](CO)C(=O)N[C@@H](CC(=O)O)C(=O)N[C@H]1CSSC[C@@H](C(=O)N2CCC[C@@]2(C)C(=O)N[C@@H](Cc2ccccc2C)C(=O)N[C@@H](CC(=O)O)C(N)=O)NC(=O)[C@H](CC(N)=O)NC(=O)[C@H](Cc2ccc3ccccc3c2)NC(=O)[C@H](CCCCNC(=O)[C@H]2CC[C@H](CNC(=O)CN3CCN(CC(=O)O)CCN(CC(=O)O)CCN(CC(=O)O)CC3)CC2)NC(=O)[C@H](CC(C)(C)C)NC(=O)[C@H](Cc2cccc3ccccc23)NC1=O` [Cpd #151, Ac-(D-Ala)-S-D-C(3)-(1Nal)-(t-Bu-Ala)-[L-Lys(Chx-DOTA)]-(2Nal)-N-C(3)-(aMe-P)-(2Me-F)-D-CONH2] (Ac-[dA][dS]DC[1Nal][tBuAla]K([Trx-DOTA])[2Nal]NC[αMeP][Phe(2-Me)]D-NH2; disulfide 4-10), the Kd came out at 0.28 nM.

As for `CC(=O)N[C@H](C)C(=O)N[C@@H](CO)C(=O)N[C@@H](CC(=O)O)C(=O)N[C@H]1CSSC[C@@H](C(=O)N2CCC[C@@]2(C)C(=O)N[C@@H](Cc2ccccc2C)C(=O)N[C@@H](CC(=O)O)C(N)=O)NC(=O)[C@H](CC(N)=O)NC(=O)[C@H](Cc2ccc3ccccc3c2)NC(=O)[C@H](CCC(=O)NCCCC[C@H](NC(=O)CN2CCN(CC(=O)O)CCN(CC(=O)O)CCN(CC(=O)O)CC2)C(=O)O)NC(=O)[C@H](CC(C)(C)C)NC(=O)[C@H](Cc2cccc3ccccc23)NC1=O` [Cpd #153, Ac-(D-Ala)-S-D-C(3)-(1Nal)-(t-Bu-Ala)-[Glu(εLys(OH)-(DOTA))]-(2Nal)-N-C(3)-(aMe-P)-(2Me-F)-D-CONH2] (Ac-[dA]SDC[1Nal][tBuAla]E(X2)[2Nal]NC[αMeP][Phe(2-Me)]D-NH2; disulfide 4-10), the Kd was found to be 0.51 nM.

`CC(=O)N[C@H](C)C(=O)N[C@@H](CO)C(=O)N[C@@H](CC(=O)O)C(=O)N[C@H]1CSSC[C@@H](C(=O)N2CCC[C@@]2(C)C(=O)N[C@@H](Cc2ccccc2)C(=O)N[C@@H](CC(=O)O)C(N)=O)NC(=O)[C@H](CC(N)=O)NC(=O)[C@H](Cc2ccc3ccccc3c2)NC(=O)[C@H](CC2CCN(C(=O)CN3CCN(CC(=O)O)CCN(CC(=O)O)CCN(CC(=O)O)CC3)CC2)NC(=O)[C@H](CC(C)(C)C)NC(=O)[C@H](Cc2cccc3ccccc23)NC1=O` [Cpd #157, Ac-(D-Ala)-S-D-C(3)-(1Nal)-(t-Bu-Ala)-[3-(4-piperidinyl-DOTA)-Ala]-(2Nal)-N-C(3)-(aMe-P)-F -D-CONH2] (Ac-[dA]SDC[1Nal][tBuAla][Ala(piperidin-4-yl)](DOTA)[2Nal]NC[αMeP]FD-NH2; disulfide 4-10): the Kd came to 0.18 nM.

`CC(=O)N[C@H](C)C(=O)N[C@@H](CO)C(=O)N[C@@H](CC(=O)O)C(=O)N[C@H]1CCC(=O)NC[C@@H](C(=O)N2CCC[C@@]2(C)C(=O)N[C@@H](Cc2ccccc2C)C(=O)N[C@@H](CC(=O)O)C(=O)N[C@H](CCCCNC(=O)CN2CCN(CC(=O)O)CCN(CC(=O)O)CCN(CC(=O)O)CC2)C(N)=O)NC(=O)[C@H](CC(N)=O)NC(=O)[C@H](Cc2ccc3ccccc3c2)NC(=O)[C@H](CCC(N)=O)NC(=O)[C@H](CC(C)(C)C)NC(=O)[C@H](Cc2cccc3ccccc23)NC1=O` [Cpd #160, Ac-(D-Ala)-S-D-Glu(2)-(1Nal)-(t-Bu-Ala)-Q-(2Nal)-N-Dap(2)-(aMe-P)-(2Me-F)-D-D-Lys(DOTA)-CONH2] (Ac-[dA]SDE[1Nal][tBuAla]Q[2Nal]N[Dap][αMeP][Phe(2-Me)]D[dK](DOTA)-NH2; lactam 4-10) showed a Kd above 300 nM.
